pKi: −log10 of the molar value. “And” between values parts separate entries of the source, which are not always exact repeats. Equal entries are not always repeated.
Molecular target: T1, Thromboxane A2 receptor (Mus musculus, UniProt P30987)
T1 sequence (P30987 whole entry): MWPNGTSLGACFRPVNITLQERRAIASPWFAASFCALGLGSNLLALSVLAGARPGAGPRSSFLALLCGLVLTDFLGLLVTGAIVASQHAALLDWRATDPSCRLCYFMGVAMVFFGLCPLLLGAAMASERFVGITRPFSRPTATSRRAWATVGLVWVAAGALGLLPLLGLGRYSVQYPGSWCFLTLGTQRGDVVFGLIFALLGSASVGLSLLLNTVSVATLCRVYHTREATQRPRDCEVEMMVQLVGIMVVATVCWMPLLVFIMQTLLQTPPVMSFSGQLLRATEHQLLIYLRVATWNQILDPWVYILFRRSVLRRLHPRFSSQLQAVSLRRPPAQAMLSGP

pKi	Structure (SMILES)
6.11	CCCCC(C)(C)[C@H](O)/C=C/[C@@H]1[C@@H](C/C=C\CCCC(=O)O)[C@@H](O)C[C@H]1O
< 5.00	CCCCC[C@@H](O)/C=C/[C@H]1[C@H](O)CC(=O)[C@@H]1CCCCCCC(=O)O
< 5.00	COc1cc(CC2NCCc3cc(O)c(O)cc32)cc(OC)c1OC (centres undefined) [1-(3,4,5-Trimethoxy-benzyl)-1,2,3,4-tetrahydro-isoquinoline-6,7-diol]
5.96	CCCCC[C@H](O)CC[C@H]1c2cc([nH]n2)[C@@H]1CC=CCCCC(=O)O [9,11-AzoPGH2]
6.36	CCCCCC(O)C=CC1C2CCC(C2)C1CC=CCCCC(=O)O (centres undefined) [9,11-ethano PGH2]
< 5.00	CCCCC[C@H](O)/C=C/[C@H]1C2OC2C(=O)[C@@H]1C/C=C\CCCC(=O)O (stereo partly drawn) [10alpha,11alpha-oxido PGA2]
6.44	CCCCC[C@H](O)/C=C/[C@@H]1[C@@H](/C=C\CCCC(=O)O)[C@H]2CO[C@@H]1C2 [11,9-epoxymethano PGH2]
< 5.00	CCCCC[C@H](O)/C=C/C1[C@H](O)C[C@H](O)[C@@H]1C/C=C\CCCC(=O)O (stereo partly drawn) [(Z)-7-[(1R,3R,5S)-3,5-Dihydroxy-2-((E)-(S)-3-hydroxy-oct-1-enyl)-cyclopentyl]-hept-5-enoic acid]
< 5.00	CCCCCC(O)CC=C1C(=O)C=CC1CC=CCCCC(=O)O (centres undefined) [CAS_41598-07-6]
5.89	CCCCC[C@H](O)/C=C/[C@H]1O[C@H]2C[C@H](O2)[C@@H]1C/C=C\CCCC(=O)O [CAS_57576-52-0]
5.85	CCCCC[C@@H](O)/C=C/[C@H]1C[C@H]2C[C@@H]([C@@H]1C/C=C\CCCC(=O)O)C2(C)C [CAS_71111-01-8]
5.82	CCCCC[C@H](O)/C=C/C1C[C@H]2C[C@H](C2)[C@@H]1C/C=C\CCCC(=O)O (some centres undefined) [CAS_74034-56-3]
6.49	O=C(O)CCCC=CCC1C(O)CC(O)C1C=CC(O)COc1ccc(F)cc1 (centres undefined) [CAS_188200]
< 5.00	CCCCC[C@H](O)/C=C/[C@H]1[C@H](O)CC(=O)[C@@H]1C/C=C\CCCC(=O)O [DINOPROSTONE]
5.92	O=C(O)CCC/C=C/C[C@H]1C2C=CC(C2)[C@@H]1/C=C/[C@H](O)COc1ccc(F)cc1 (some centres undefined) [EP011]
< 5.00	CCCCCC(C)(O)C=CC1C(O)CC(O)C1CC=CCCCC(=O)O (centres undefined) [NSC_37255]
6.34	O=C(O)CCCC=CCC1C2CCC(C2)C1C=NNC(=O)Nc1ccccc1 (centres undefined) [NSC_5311388]

Structure (SMILES)	pKi
CCCCC[C@H](O)/C=C/[C@@H]1[C@@H](C/C=C\CCCC(=O)O)[C@@H]2C[C@H]1OO2 [PGH2]	6.70 and 5.80
CCCCC/C=C\C/C=C\C/C=C\C/C=C\CCCC(=O)O [[1-14C]Arachidonic acid]	< 5.00
